Reference: ChEMBL document CHEMBL4052645, “Discovery of potent and efficacious pyrrolopyridazines as dual JAK1/3 inhibitors” (Bioorg Med Chem Lett, 2017)

Key:
[1] = molecular target: Tyrosine-protein kinase ABL2 (Homo sapiens) (UniProt P42684); assay: Inhibition of wild-type human ARG (A248 to G542 residues) expressed in bacterial expression system assessed as residual activity at 50 nM by Kinomescan method relative to control
[2] = molecular target: Homeodomain-interacting protein kinase 2 (Homo sapiens) (UniProt Q9H2X6); assay: Inhibition of wild-type human partial length HIPK2 (M153 to S564 residues) expressed in mammalian expression system assessed as residual activity at 50 nM by Kinomescan method relative to control
[3] = molecular target: Serine/threonine-protein kinase 3 (Homo sapiens) (UniProt Q13188); assay: Inhibition of human MST2 (D17 to E318 residues) expressed in bacterial expression system assessed as residual activity at 50 nM by KINOMEscan assay relative to control
Chain of Serine/threonine-protein kinase 3 (Homo sapiens) (Q13188 whole entry, the tested form may be a part): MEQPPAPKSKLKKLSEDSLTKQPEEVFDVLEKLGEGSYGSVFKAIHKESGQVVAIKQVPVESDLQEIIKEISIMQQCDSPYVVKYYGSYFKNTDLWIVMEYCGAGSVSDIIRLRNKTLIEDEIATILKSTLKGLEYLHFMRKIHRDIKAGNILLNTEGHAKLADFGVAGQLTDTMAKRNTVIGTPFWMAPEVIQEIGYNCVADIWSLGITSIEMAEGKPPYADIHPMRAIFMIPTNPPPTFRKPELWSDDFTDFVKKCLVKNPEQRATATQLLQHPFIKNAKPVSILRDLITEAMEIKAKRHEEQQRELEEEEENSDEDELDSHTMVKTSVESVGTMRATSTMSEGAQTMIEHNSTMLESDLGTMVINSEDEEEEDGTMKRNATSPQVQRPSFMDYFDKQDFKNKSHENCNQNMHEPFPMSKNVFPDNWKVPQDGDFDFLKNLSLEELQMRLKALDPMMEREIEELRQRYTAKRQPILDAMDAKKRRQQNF

[4] = molecular target: Cyclin-dependent kinase 13 (Homo sapiens) (UniProt Q14004); assay: Inhibition of wild-type human partial length CDC2L5 (H675 to S1054 residues) expressed in mammalian expression system assessed as residual activity at 50 nM by Kinomescan method relative to control
[5] = system: Phosphatidylinositol 4,5-bisphosphate 3-kinase catalytic subunit alpha isoform (Homo sapiens), P42336 [C420R]; assay: Inhibition of human partial length PI3KCA C420R mutant (R108 to N1068 residues) expressed in mammalian expression system assessed as residual activity at 50 nM by Kinomescan method relative to control
[6] = molecular target: Ribosomal protein S6 kinase alpha-3 (Homo sapiens) (UniProt P51812); assay: Inhibition of wild-type human partial length N-terminal RSK2 kinase domain 1 (M1 to D394 residues) expressed in mammalian expression system assessed as residual activity at 50 nM by Kinomescan method relative to control
[7] = molecular target: Tyrosine-protein kinase ABL1 (Homo sapiens) (UniProt P00519); assay: Inhibition of wild-type human non-phosphorylated ABL1 (S229 to K512 residues) expressed in mammalian expression system assessed as residual activity at 50 nM by Kinomescan method relative to control
[8] = molecular target: Dual specificity protein kinase CLK4 (Homo sapiens) (UniProt Q9HAZ1); assay: Inhibition of wild-type human partial length CLK4 (R135 to K481 residues) expressed in bacterial expression system assessed as residual activity at 50 nM by Kinomescan method relative to control
[9] = molecular target: Dual specificity mitogen-activated protein kinase kinase 4 (Homo sapiens) (UniProt P45985); assay: Inhibition of wild-type human partial length MAP2K4 (S84 to D399 residues) expressed in mammalian expression system assessed as residual activity at 50 nM by Kinomescan method relative to control
[10] = molecular target: Myosin-IIIa (Homo sapiens) (UniProt Q8NEV4); assay: Inhibition of wild-type human partial length MYO3A (M1 to K338 residues) expressed in bacterial expression system assessed as residual activity at 50 nM by Kinomescan method relative to control
Chain of Myosin-IIIa (Homo sapiens) (Q8NEV4 whole entry, the tested form may be a part): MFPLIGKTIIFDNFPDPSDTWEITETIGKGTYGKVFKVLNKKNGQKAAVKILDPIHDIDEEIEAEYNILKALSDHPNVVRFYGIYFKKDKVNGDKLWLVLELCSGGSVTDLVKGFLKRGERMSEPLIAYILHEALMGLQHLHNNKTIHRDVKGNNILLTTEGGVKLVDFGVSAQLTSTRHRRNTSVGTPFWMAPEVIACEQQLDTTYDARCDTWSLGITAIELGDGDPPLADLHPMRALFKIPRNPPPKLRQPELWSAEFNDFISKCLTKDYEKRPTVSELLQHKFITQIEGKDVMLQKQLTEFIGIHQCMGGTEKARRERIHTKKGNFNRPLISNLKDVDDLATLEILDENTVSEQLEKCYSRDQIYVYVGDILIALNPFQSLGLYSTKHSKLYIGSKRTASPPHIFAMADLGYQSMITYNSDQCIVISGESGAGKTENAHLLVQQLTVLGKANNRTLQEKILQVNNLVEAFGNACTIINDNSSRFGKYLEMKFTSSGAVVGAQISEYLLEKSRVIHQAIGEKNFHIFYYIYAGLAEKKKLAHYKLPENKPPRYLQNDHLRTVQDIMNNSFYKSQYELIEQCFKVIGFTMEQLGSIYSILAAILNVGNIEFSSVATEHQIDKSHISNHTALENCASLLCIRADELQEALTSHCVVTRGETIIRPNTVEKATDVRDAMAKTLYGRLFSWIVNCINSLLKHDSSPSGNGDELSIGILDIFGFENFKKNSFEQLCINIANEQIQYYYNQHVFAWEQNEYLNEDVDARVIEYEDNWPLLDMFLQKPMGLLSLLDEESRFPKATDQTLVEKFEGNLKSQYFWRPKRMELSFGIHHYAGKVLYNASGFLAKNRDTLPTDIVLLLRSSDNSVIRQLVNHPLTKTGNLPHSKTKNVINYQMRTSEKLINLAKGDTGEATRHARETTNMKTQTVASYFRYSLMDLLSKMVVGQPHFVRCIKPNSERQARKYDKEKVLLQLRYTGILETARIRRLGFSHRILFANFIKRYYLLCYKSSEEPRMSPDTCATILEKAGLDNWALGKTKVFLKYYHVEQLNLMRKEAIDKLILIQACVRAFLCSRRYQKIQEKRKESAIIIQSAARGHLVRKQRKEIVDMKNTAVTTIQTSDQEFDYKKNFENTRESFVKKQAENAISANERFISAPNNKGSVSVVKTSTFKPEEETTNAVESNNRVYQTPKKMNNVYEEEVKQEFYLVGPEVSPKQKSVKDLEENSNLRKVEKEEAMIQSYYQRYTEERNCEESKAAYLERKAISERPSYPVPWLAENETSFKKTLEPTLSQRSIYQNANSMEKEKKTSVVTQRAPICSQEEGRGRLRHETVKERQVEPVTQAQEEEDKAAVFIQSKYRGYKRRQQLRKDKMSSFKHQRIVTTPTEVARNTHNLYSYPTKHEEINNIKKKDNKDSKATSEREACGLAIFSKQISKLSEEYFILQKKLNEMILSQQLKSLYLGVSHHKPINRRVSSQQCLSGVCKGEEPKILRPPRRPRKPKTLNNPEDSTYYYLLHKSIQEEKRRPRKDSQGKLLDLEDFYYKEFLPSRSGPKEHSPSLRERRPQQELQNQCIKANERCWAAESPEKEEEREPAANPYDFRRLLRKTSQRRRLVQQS

[11] = molecular target: Receptor-type tyrosine-protein kinase FLT3 (Homo sapiens) (UniProt P36888); assay: Inhibition of wild-type human partial length FLT3 (V592 to Y969 residues) expressed in bacterial expression system assessed as residual activity at 50 nM by Kinomescan method relative to control
[12] = molecular target: Ribosomal protein S6 kinase alpha-1 (Homo sapiens) (UniProt Q15418); assay: Inhibition of wild-type human partial length N-terminal RSK1 Kinase domain 1 (M1 to E388 residues) expressed in bacterial expression system assessed as residual activity at 50 nM by Kinomescan method relative to control
[13] = molecular target: Ribosomal protein S6 kinase beta-1 (Homo sapiens) (UniProt P23443); assay: Inhibition of wild-type human partial length P70S6K (M1 to S421 residues) expressed in mammalian expression system assessed as residual activity at 50 nM by Kinomescan method relative to control
Chain of Ribosomal protein S6 kinase beta-1 (Homo sapiens) (P23443 whole entry, looked up, the tested form may be a part): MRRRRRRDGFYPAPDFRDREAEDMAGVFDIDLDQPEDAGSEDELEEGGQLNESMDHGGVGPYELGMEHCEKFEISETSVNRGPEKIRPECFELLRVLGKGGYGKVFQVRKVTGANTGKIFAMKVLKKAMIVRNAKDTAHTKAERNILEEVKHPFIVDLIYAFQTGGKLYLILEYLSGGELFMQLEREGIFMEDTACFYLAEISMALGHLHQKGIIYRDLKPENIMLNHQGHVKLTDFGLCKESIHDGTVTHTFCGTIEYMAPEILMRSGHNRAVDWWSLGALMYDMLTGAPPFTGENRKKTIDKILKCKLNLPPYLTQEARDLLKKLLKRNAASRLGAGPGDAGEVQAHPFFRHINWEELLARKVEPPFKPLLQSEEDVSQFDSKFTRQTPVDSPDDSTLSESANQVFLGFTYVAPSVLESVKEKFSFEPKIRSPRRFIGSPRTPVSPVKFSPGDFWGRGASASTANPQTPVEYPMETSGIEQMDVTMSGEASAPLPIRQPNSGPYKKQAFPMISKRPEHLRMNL

[14] = molecular target: Macrophage-stimulating protein receptor (Homo sapiens) (UniProt Q04912); assay: Inhibition of wild-type human partial length RON (I1057 to L1363 residues) expressed in bacterial expression system assessed as residual activity at 50 nM by Kinomescan method relative to control
[15] = molecular target: Serine/threonine-protein kinase 38 (Homo sapiens) (UniProt Q15208); assay: Inhibition of wild-type human partial length NDR1 (N33 to E449 residues) expressed in mammalian expression system assessed as residual activity at 50 nM by Kinomescan method relative to control
Chain of Serine/threonine-protein kinase 38 (Homo sapiens) (Q15208 2-465 limits assumed): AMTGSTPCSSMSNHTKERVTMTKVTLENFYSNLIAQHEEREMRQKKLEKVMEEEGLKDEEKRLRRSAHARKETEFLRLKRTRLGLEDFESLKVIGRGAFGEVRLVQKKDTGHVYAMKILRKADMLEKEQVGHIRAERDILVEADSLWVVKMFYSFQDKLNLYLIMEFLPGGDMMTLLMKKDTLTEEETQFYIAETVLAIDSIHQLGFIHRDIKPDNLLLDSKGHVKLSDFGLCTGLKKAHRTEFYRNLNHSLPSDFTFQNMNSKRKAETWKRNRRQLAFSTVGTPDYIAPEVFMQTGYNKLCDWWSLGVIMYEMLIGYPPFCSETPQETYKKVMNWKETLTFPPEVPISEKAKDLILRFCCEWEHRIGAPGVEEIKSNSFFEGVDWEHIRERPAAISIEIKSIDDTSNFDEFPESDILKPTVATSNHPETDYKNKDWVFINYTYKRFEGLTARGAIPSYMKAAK

[16] = molecular target: RAC-alpha serine/threonine-protein kinase (Homo sapiens) (UniProt P31749); assay: Inhibition of wild-type human partial length AKT1 expressed in bacterial expression system assessed as residual activity at 50 nM by Kinomescan method relative to control
Chain of RAC-alpha serine/threonine-protein kinase (Homo sapiens) (P31749 whole entry, the tested form may be a part): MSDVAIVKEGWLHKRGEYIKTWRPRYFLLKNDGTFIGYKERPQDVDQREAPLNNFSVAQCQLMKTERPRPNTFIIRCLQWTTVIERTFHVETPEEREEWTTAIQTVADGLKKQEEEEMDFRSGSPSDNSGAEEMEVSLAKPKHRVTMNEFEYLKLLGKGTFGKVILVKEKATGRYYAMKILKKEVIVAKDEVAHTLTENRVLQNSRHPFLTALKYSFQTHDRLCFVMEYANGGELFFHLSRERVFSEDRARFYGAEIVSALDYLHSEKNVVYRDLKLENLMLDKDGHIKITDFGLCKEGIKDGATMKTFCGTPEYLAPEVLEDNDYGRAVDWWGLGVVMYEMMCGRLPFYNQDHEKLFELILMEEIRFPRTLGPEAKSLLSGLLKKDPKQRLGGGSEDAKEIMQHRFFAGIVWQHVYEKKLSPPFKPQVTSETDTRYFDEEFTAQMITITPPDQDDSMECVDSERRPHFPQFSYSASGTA

[17] = molecular target: Tyrosine-protein kinase Fer (Homo sapiens) (UniProt P16591); assay: Inhibition of wild-type human partial length FER (S542 to T822 residues) expressed in bacterial expression system assessed as residual activity at 50 nM by Kinomescan method relative to control
[18] = molecular target: Casein kinase I isoform gamma-2 (Homo sapiens) (UniProt P78368); assay: Inhibition of wild-type human full length CK1G2 (M1 to K415 residues) expressed in bacterial expression system assessed as residual activity at 50 nM by Kinomescan method relative to control
[19] = molecular target: Serine/threonine-protein kinase 25 (Homo sapiens) (UniProt O00506); assay: Inhibition of wild-type human partial length YSK1 (V14 to H295 residues) expressed in bacterial expression system assessed as residual activity at 50 nM by Kinomescan method relative to control
Chain of Serine/threonine-protein kinase 25 (Homo sapiens) (O00506 whole entry, looked up, the tested form may be a part): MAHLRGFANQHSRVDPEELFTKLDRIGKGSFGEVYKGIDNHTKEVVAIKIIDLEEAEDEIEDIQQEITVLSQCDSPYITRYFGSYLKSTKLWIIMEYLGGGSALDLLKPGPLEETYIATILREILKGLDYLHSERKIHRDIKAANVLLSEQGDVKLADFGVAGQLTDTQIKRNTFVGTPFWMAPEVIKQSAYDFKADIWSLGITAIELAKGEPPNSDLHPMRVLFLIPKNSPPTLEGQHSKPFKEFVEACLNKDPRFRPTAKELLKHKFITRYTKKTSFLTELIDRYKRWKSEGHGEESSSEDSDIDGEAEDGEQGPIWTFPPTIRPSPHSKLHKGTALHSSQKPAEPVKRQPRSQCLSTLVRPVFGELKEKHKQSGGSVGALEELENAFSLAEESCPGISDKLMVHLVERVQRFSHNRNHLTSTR

[20] = molecular target: MAP kinase-activated protein kinase 2 (Homo sapiens) (UniProt P49137); assay: Inhibition of wild-type human partial length MAPKAPK2 (V48 to D345 residues) expressed in bacterial expression system assessed as residual activity at 50 nM by Kinomescan method relative to control
Chain of MAP kinase-activated protein kinase 2 (Homo sapiens) (P49137 whole entry, looked up, the tested form may be a part): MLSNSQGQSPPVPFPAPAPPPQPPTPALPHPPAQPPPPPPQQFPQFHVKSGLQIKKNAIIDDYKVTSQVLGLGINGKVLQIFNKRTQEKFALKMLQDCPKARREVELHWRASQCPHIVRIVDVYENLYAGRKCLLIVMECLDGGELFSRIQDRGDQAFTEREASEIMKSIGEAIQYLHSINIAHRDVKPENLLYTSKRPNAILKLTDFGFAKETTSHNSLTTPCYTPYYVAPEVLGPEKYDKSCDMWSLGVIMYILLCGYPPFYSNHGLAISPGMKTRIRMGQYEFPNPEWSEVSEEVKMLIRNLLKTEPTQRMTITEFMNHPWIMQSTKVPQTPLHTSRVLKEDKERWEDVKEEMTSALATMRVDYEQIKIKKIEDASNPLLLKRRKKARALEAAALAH

[21] = molecular target: Serine/threonine-protein kinase VRK2 (Homo sapiens) (UniProt Q86Y07); assay: Inhibition of wild-type human partial length VRK2 (M1 to T336 residues) expressed in mammalian expression system assessed as residual activity at 50 nM by Kinomescan method relative to control
[22] = molecular target: Leucine-rich repeat serine/threonine-protein kinase 2 (Homo sapiens) (UniProt Q5S007); assay: Inhibition of wild-type human partial length LRRK2 (H970 to E2527 residues) expressed in mammalian expression system assessed as residual activity at 50 nM by Kinomescan method relative to control
[23] = molecular target: Activated CDC42 kinase 1 (Homo sapiens) (UniProt Q07912); assay: Inhibition of wild-type human partial length ACK (S159 to D474 residues) expressed in bacterial expression system assessed as residual activity at 50 nM by Kinomescan method relative to control
[24] = molecular target: Serine/threonine-protein kinase pim-2 (Homo sapiens) (UniProt Q9P1W9); assay: Inhibition of wild-type human partial length PIM2 (M1 to E291 residues) expressed in bacterial expression system assessed as residual activity at 50 nM by Kinomescan method relative to control
[25] = molecular target: Dual specificity protein kinase CLK2 (Homo sapiens) (UniProt P49760); assay: Inhibition of wild-type human partial length CLK2 (D144 to R498 residues) expressed in bacterial expression system assessed as residual activity at 50 nM by Kinomescan method relative to control
Chain of Dual specificity protein kinase CLK2 (Homo sapiens) (P49760 whole entry, looked up, the tested form may be a part): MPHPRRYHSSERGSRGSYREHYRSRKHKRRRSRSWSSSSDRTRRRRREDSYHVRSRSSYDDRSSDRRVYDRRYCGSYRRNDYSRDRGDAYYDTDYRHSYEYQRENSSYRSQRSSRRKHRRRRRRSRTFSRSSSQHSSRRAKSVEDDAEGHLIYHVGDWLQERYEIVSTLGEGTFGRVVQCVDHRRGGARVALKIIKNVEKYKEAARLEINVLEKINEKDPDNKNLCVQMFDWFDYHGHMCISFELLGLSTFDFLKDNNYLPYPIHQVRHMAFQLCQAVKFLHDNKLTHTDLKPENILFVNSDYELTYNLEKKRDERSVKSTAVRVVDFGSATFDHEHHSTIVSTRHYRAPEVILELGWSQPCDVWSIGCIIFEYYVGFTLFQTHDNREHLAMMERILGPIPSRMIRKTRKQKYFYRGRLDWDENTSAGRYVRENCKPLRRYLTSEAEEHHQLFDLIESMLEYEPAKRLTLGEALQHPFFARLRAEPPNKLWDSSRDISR

Structure (SMILES)	Activity [1]	Activity [2]	Activity [3]	Activity [4]	Activity [5]	Activity [6]	Activity [7]	Activity [8]	Activity [9]	Activity [10]	Activity [11]	Activity [12]	Activity [13]	Activity [14]	Activity [15]	Activity [16]	Activity [17]	Activity [18]	Activity [19]	Activity [20]	also measured
COc1ccc(-c2cc3c(N[C@@H]4CC[C@](C)(N)C4(C)C)c(C(N)=O)cnn3c2)cn1	91%	100%	6%	100%	100%	74%	90%	100%	100%	94%	90%	100%	97%	100%	99%	95%	100%	82%	74%	100%	Activity [21]: 85%; Activity [22]: 25%; Activity [23]: 100%; Activity [24]: 100%; Activity [25]: 71%
CC1(C)[C@H](Nc2c(C(N)=O)cnn3cc(-c4ccccc4)cc23)CC[C@]1(C)N	91%	97%	6.2%	72%	100%	47%	100%	100%	100%	87%	72%	67%	96%	100%	92%	79%	100%	100%	58%	100%	Activity [21]: 70%; Activity [22]: 21%; Activity [23]: 73%; Activity [24]: 100%; Activity [25]: 69%
